Experimental data: ChEMBL document CHEMBL4371082
Active and inactive are the calls of the source.

Columns and labels:
[1] = Antioxidant activity assessed as DPPH free radical scavenging activity at 20 uM; assay type: functional
[2] = Antioxidant activity assessed as ABTS radical scavenging activity at 20 uM measured at 30 sec interval over 60 mins; assay type: functional
Saccharomyces cerevisiae [3] = experiment: Protection against 3-copies of HA-tagged human alpha-syn gene induced oxidative stress in yeast BC300 assessed as reduction in reactive oxygen species level in SG solid agar medium by dihydroethidium dye based fluorescence assay; assay type: functional, organism-based
Saccharomyces cerevisiae [4] = experiment: Protection against 3-copies of HA-tagged human alpha-syn gene induced mitochondrial dysfunction in yeast BC300 assessed as prevention of mitochondrial membrane potential loss in SG solid agar medium by JC-10 dye based fluorescence assay; assay type: functional, organism-based
Saccharomyces cerevisiae [5] = experiment: Protection against copy of c-myc-tagged human bax gene induced oxidative stress in yeast BC300 assessed as reactive oxygen species level in SG liquid medium by dihydroethidium dye based fluorescence assay; assay type: functional, organism-based
Saccharomyces cerevisiae [6] = experiment: Protection against copy of c-myc-tagged human bax gene induced mitochondrial dysfunction in yeast BC300 assessed as prevention of mitochondrial membrane potential loss in SG liquid medium by JC-10 dye based fluorescence assay; assay type: functional, organism-based

Measured: Activity

O=C1O[C@H]([C@@H](O)CO)C(O)=C1O
active: [1] | [2]

COc1ccc([C@@H](O)CNC(=O)/C=C/c2ccccc2)cc1
active: [1] | [2] | Saccharomyces cerevisiae [3] | Saccharomyces cerevisiae [4] | Saccharomyces cerevisiae [5] | Saccharomyces cerevisiae [6]
